Assay results as given in ChEMBL document CHEMBL4699579, “A Peptidyl Inhibitor that Blocks Calcineurin-NFAT Interaction and Prevents Acute Lung Injury” (J Med Chem, 2020).
The source made the active and inactive calls. No cut-off for these calls is given here. Positions of bridges follow the written chain, without caps; N, C: chain ends. Non-standard residues stand in square brackets, D forms with d. Residues, ends and D or L forms follow the SMILES beside them. Chains are numbered I, II in the order given. *: point of attachment. 2Nal = N[C@@H](Cc1ccc2ccccc2c1)C(=O)O; Val(3-OH) = CC(C)(O)[C@H](N)C(=O)O; Tle = CC(C)(C)[C@H](N)C(=O)O; X1 = O=C(c1ccnc(Cl)c1Cl)*; AEEA = NCCOCCOCC(=O)O

Experiments:
Mus musculus [1] = test: Anti-inflammatory activity in BALB/c mouse model of LPS-induced ALI assessed as reduction in LPS-induced BALF protein levels at 0.3 to 3 mg/kg dosed via intranasal instillation pre-treated 2 hrs before LPS stimulation for 6 hrs; format: functional
Mus musculus [2] = test: Anti-inflammatory activity in BALB/c mouse model of LPS-induced ALI assessed as reduction in LPS-induced IL6 in BALF at 3 mg/kg dosed via intranasal instillation pre-treated 2 hrs before LPS stimulation for 6 hrs and measured at 24 hrs; format: functional, organism-based
[3] = Drug distribution in BALB/c mouse pancreas at […], ip using compound labelled with cyanine-5 measured after 24 hrs by fluorescence based assay; format: ADME, organism-based; conditions: dose 2.4 mg/kg, read-out: Drug uptake
[4] = Drug distribution in BALB/c mouse lymph nodes at […], sc using compound labelled with cyanine-5 measured after 24 hrs by fluorescence based assay; format: ADME, organism-based, Lymph node; conditions: dose 2.4 mg/kg, read-out: Drug uptake
[5] = Drug distribution in BALB/c mouse muscle at […], ip using compound labelled with cyanine-5 measured after 24 hrs by fluorescence based assay; format: ADME, organism-based, Muscle tissue; conditions: in vivo, dose 2.4 mg/kg
[6] = Drug distribution in BALB/c mouse plasma at […], ip using compound labelled with cyanine-5 measured after 24 hrs by fluorescence based assay; format: ADME, organism-based; conditions: in vivo, dose 2.4 mg/kg
[7] = Drug distribution in BALB/c mouse neutrophils at […], sc using compound labelled with cyanine-5 measured after 24 hrs by flow cytometry; format: ADME, organism-based, Neutrophil; conditions: in vivo, dose 2.4 mg/kg
[8] = Toxicity in mouse lung macrophages cells assessed as reduction in cell viability up to 25 uM incubated for 72 hrs by MTT assay; format: tissue-based; conditions: macrophage
[9] = Drug distribution in BALB/c mouse heart at […], sc using compound labelled with cyanine-5 measured after 24 hrs by fluorescence based assay; format: ADME, organism-based; conditions: dose 2.4 mg/kg, read-out: Drug uptake
[10] = Drug distribution in BALB/c mouse neutrophils at 0.6 mg/kg, iv using compound labelled with cyanine-5 measured after 24 hrs by flow cytometry; format: ADME, organism-based, Neutrophil; conditions: in vivo
[11] = Drug distribution in BALB/c mouse lymph nodes at 0.6 mg/kg, iv using compound labelled with cyanine-5 measured after 24 hrs by fluorescence based assay; format: ADME, organism-based, Lymph node; conditions: read-out: Drug uptake
[12] = Drug distribution in BALB/c mouse lung at […], ip using compound labelled with cyanine-5 measured after 24 hrs by fluorescence based assay; format: ADME, organism-based; conditions: dose 2.4 mg/kg, read-out: Drug uptake
Mus musculus [13] = test: Anti-inflammatory activity in BALB/c mouse model of LPS-induced ALI assessed as effect on LPS-induced TNFalpha in kidney at 5 mg/kg, iv pre-treated 4 hrs before LPS stimulation for 16 hrs; format: functional, organism-based; conditions: time 20.0 hrs
[14] = Stability in mouse liver microsomes assessed as compound degradation at 100 uM incubated up to 60 mins in presence of NADPH by LC-MS/MS analysis; format: ADME, Microsome; conditions: 1 h, TDE = time-dependent effect
[15] = Drug distribution in BALB/c mouse lung at […], sc using compound labelled with cyanine-5 measured after 24 hrs by fluorescence based assay; format: ADME, organism-based; conditions: dose 2.4 mg/kg, read-out: Drug uptake
[16] = Drug concentration in BALB/c mouse spleen at 5 mg/kg, iv after 8 hrs by LC-MS/MS analysis; format: ADME, organism-based; conditions: read-out: Drug uptake
[17] = Drug distribution in BALB/c mouse kidney at […], ip using compound labelled with cyanine-5 measured after 24 hrs by fluorescence based assay; format: ADME, organism-based; conditions: in vivo, dose 2.4 mg/kg
[18] = Drug concentration in BALB/c mouse brain at 5 mg/kg, iv after 8 hrs by LC-MS/MS analysis; format: ADME, organism-based; conditions: in vivo
[19] = Drug uptake in human HCT-116 cells spheroids at 5 uM incubated for 4 to 24 hrs by MALDI-TOF-TOF mass spectrometry; format: ADME, cell-based; conditions: hct-116, 5 µM, TDE = time-dependent effect, time 4-24 hrs
Mus musculus [20] = test: Anti-inflammatory activity in BALB/c mouse model of LPS-induced ALI assessed as reduction in LPS-induced lung wet-to-dry ratios at 3 mg/kg dosed via intranasal instillation pre-treated 2 hrs before LPS stimulation for 6 hrs and measured at 24 hrs; format: functional, organism-based
[21] = Drug distribution in BALB/c mouse kidney at […], sc using compound labelled with cyanine-5 measured after 24 hrs by fluorescence based assay; format: ADME, organism-based; conditions: in vivo, dose 2.4 mg/kg
[22] = Clearance in C57BL/6 mouse assessed as clearance time at 5 mg/kg using TMR-labeled compound instilled into both nostrils by flow cytometry; format: ADME, organism-based; conditions: in vivo, inhaled_or_intranasal
[23] = Drug distribution in BALB/c mouse lung at 0.6 mg/kg, iv using compound labelled with cyanine-5 measured after 24 hrs by fluorescence based assay; format: ADME, organism-based; conditions: read-out: Drug uptake
[24] = Stability in simulated intestinal fluid at 5 uM incubated for 2 hrs by LC/MS/MS analysis
[25] = Drug distribution in BALB/c mouse spleen at […], ip using compound labelled with cyanine-5 measured after 24 hrs by fluorescence based assay; format: ADME, organism-based; conditions: in vivo, dose 2.4 mg/kg
[26] = Plasma concentration in BALB/c mouse at 5 mg/kg, iv after 2 to 4 hrs by LC-MS/MS analysis; format: ADME, organism-based; conditions: in vivo, time 2-4 hrs
[27] = Drug distribution in BALB/c mouse neutrophils at […], ip using compound labelled with cyanine-5 measured after 24 hrs by flow cytometry; format: ADME, organism-based, Neutrophil; conditions: in vivo, dose 2.4 mg/kg
[28] = Drug distribution in BALB/c mouse Non-T and B lymphocytes at 0.6 mg/kg, iv using compound labelled with cyanine-5 measured after 24 hrs by flow cytometry; format: ADME, organism-based, Lymphocyte; conditions: in vivo
[29] = Plasma concentration in BALB/c mouse at 5 mg/kg, iv after 8 hrs by LC-MS/MS analysis; format: ADME, organism-based
[30] = Drug distribution in BALB/c mouse muscle at […], sc using compound labelled with cyanine-5 measured after 24 hrs by fluorescence based assay; format: ADME, organism-based, Muscle tissue; conditions: in vivo, dose 2.4 mg/kg
[31] = Drug metabolism in BALB/c mouse plasma at 5 mg/kg, iv after 8 hrs by LC-MS/MS analysis; format: ADME, organism-based; conditions: in vivo
Mus musculus [32] = test: Anti-inflammatory activity in BALB/c mouse model of LPS-induced ALI assessed as reduction in LPS-induced TNFalpha in BALF at 3 mg/kg dosed via intranasal instillation pre-treated 2 hrs before LPS stimulation for 6 hrs and measured at 24 hrs; format: functional, organism-based
Mus musculus [33] = test: Anti-inflammatory activity in BALB/c mouse model of LPS-induced ALI assessed as reduction in LPS-induced TNFalpha in lung at 5 mg/kg, iv pre-treated 4 hrs before LPS stimulation for 16 hrs; format: functional; conditions: time 20 hrs
[34] = Drug distribution in BALB/c mouse lymph nodes at […], ip using compound labelled with cyanine-5 measured after 24 hrs by fluorescence based assay; format: ADME, organism-based, Lymph node; conditions: dose 2.4 mg/kg, read-out: Drug uptake
[35] = Drug distribution in BALB/c mouse plasma at 0.6 mg/kg, iv using compound labelled with cyanine-5 measured after 24 hrs by fluorescence based assay; format: ADME, organism-based; conditions: in vivo
[36] = Drug distribution in BALB/c mouse muscle at 0.6 mg/kg, iv using compound labelled with cyanine-5 measured after 24 hrs by fluorescence based assay; format: ADME, organism-based, Muscle tissue; conditions: in vivo
[37] = Stability in mouse hepatocytes at 2 uM incubated up to 90 mins by LC/MS/MS analysis; format: ADME, cell-based, Hepatocyte
Mus musculus [38] = test: Anti-inflammatory activity in BALB/c mouse model of LPS-induced ALI assessed as reduction in LPS-induced BALF protein levels at 5 mg/kg, iv pre-treated 4 hrs before LPS stimulation for 16 hrs; format: functional, organism-based; conditions: time 20.0 hrs

SMILES: CC[C@H](C)[C@H](NC(=O)[C@@H](NC(=O)c1ccnc(Cl)c1Cl)C(C)(C)C)C(=O)N[C@H](C(=O)N[C@H](C(=O)N[C@H](C(=O)N[C@@H](CCC(N)=O)C(=O)N[C@@H](Cc1c[nH]cn1)C(=O)N[C@H](CC(C)C)C(=O)N[C@@H](CO)C(=O)NCCOCCOCC(=O)N[C@@H](CCCCNC(=O)CC[C@@H]1NC(=O)[C@@H](CCCNC(=N)N)NC(=O)[C@H](CCCNC(=N)N)NC(=O)[C@@H](CCCNC(=N)N)NC(=O)[C@H](CCCNC(=N)N)NC(=O)[C@H](Cc2ccc3ccccc3c2)NC(=O)[C@@H](Cc2ccccc2)NC1=O)C(N)=O)[C@@H](C)O)[C@@H](C)CC)C(C)(C)O (I: X1-[Tle]I[Val(3-OH)]ITQH[dL]S[AEEA]K-NH2 / II: cyclo([2Nal]R[dR]R[dR]E[dF]); amide I:11-II:6)
- Activity (Mus musculus [1]; dose mg/kg 0.3-3, time 8.0 hrs): Dose-dependent effect
- minimal effective dose (Mus musculus [1]; dose mg/kg 0.3-3, time 8 hrs, read-out: MED): 1 mg/kg
- Activity (Mus musculus [2]): inactive
- concentration at 24 h [3]: > 50 nM
- concentration at 24 h [4]: > 50 nM
- Drug uptake [5]: Not Active
- Drug uptake [6]: Not Active
- Drug uptake [7]: Active
- Activity [8]: Non-Toxic
- concentration at 24 h [9]: > 50 nM
- Drug uptake [10]: Active
- concentration at 24 h [11]: > 50 nM
- concentration at 24 h [12]: > 50 nM
- Activity (Mus musculus [13]): inactive
- Drug degradation [14]: Tde
- concentration at 24 h [15]: > 50 nM
- concentration at 8 h [16]: 15 nM
- Drug uptake [17]: Active
- Drug uptake [18]: Not Active
- Drug uptake [19]: Tde
- Activity (Mus musculus [20]): inactive
- Drug uptake [21]: Active
- CL [22]: 16 h
- concentration at 24 h [23]: > 50 nM
- Stability [24]: Stable
- Drug uptake [25]: Active
- concentration [26]: < 5 nM
- Drug uptake [27]: Active
- Drug uptake [28]: Active
- concentration at 8 h [29]: 13.5 nM
- Drug uptake [30]: Not Active
- Drug metabolism [31]: Metabolite_Detected
- Activity (Mus musculus [32]): inactive
- inhibition in vivo at 5 mg/kg (Mus musculus [33]): 100%
- concentration at 24 h [34]: > 50 nM
- Drug uptake [35]: Not Active
- Drug uptake [36]: Not Active
- Stabilty [37]: Stable
- Activity (Mus musculus [38]): Active
